Data as given in patent publication US20100267774A1, “P38 MAP KINASE INHIBITORS” (CHROMA THERAPEUTICS LTD., priority 2007, published 2010).

What follows are compounds tested against T1, p38 MAP Kinase a (Homo sapiens, UniProt Q16539) (assay: p38 MAP Kinase activity, radiometric filter-binding assay (Upstate)). Conditions: IC50 range; read-out: Inhibitor activity versus p38 MAPKa.
T1 construct: purchased Upstate (Dundee UK)
Type: biochemical
Description: The ability of compounds to inhibit p38 MAP a Kinase activity was measured in an assay performed by Upstate (Dundee UK). In a final reaction volume of 25 μL, p38 MAP Kinase a (5-10 mU) is incubated with 25 mM Tris pH 7.5, 0.002 mMEGTA, 0.33 mg/mL myelin basic protein, 10 mM MgAcetate and [g-33P-ATP] (specific activity approx. 500 cpm/pmol, concentration as required). The reaction is initiated by the addition of the MgATP mix. After incubation for 40 minutes at room temperature, the reaction is stopped by the addition of 5 μL of a 3% phosphoric acid solution. 10 μL of the reaction is then spotted onto a P30 filtermat and washed three times for 5 minutes in 75 mM phosphoric acid and once in methanol prior to drying and scintillation counting.
Duplicate data points are generated from a 1/3 log dilution series of a stock solution in DMSO. Nine dilutions steps are made from a top concentration of 10 μM, and a ‘no compound’ blank is included. The standard radiometric filter-binding assay is performed at an ATP concentration at, or close to, the Km. Data from scintillation counts are collected and subjected to free-fit analysis by Prism software. From the curve generated, the concentration giving 50% inhibition is determined and reported.

T1 sequence (Q16539 whole entry): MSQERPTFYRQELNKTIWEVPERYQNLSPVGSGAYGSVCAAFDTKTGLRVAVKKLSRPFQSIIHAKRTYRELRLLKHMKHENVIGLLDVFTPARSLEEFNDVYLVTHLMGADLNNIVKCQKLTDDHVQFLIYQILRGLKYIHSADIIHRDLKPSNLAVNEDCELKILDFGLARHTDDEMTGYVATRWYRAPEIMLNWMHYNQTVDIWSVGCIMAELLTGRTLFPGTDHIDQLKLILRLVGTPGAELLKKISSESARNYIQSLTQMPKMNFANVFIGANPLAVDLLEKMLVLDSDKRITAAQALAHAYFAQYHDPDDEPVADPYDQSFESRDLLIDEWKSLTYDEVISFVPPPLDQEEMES

IC50 [nM]	SMILES
100 to 1000	CC(C)(C)OC(=O)[C@@H](NCCc1ccc(-n2c(N)c(C(=O)c3ccc(F)cc3F)ccc2=O)cc1)c1ccccc1 [Example 2, tert-butyl (2S)-{[2-(4-{6-amino-5-[(2,4-difluorophenyl)carbonyl]-2-oxopyridin-1(2H)-yl}phenyl)ethyl]amino}(phenyl)ethanoate]
> 1000	CC(C)(C)OC(=O)[C@@H](NCCc1ccc(-n2c(N)c(C(=O)c3ccc(F)cc3F)ccc2=O)cc1)C1CCCCC1 [Example 4, tert-butyl (2S)-{[2-(4-{6-amino-5-[(2,4-difluorophenyl)carbonyl]-2-oxopyridin-1(2H)-yl}phenyl)ethyl]amino}(cyclohexyl)ethanoate]
100 to 1000	CC(C)C[C@@H](NCCc1ccc(-n2c(N)c(C(=O)c3ccc(F)cc3F)ccc2=O)cc1)C(=O)OC(C)(C)C [Example 10, tert-butyl N-[2-(4-{6-amino-5-[(2,4-difluorophenyl)carbonyl]-2-oxopyridin-1(2H)-yl}phenyl)ethyl]-D-leucinate]
100 to 1000	C[C@@H](OC(C)(C)C)[C@H](NCCc1ccc(-n2c(N)c(C(=O)c3ccc(F)cc3F)ccc2=O)cc1)C(=O)OC(C)(C)C [Example 16, tert-butyl N-[2-(4-{6-amino-5-[(2,4-difluorophenyl)carbonyl]-2-oxopyridin-1(2H)-yl}phenyl)ethyl]-O-tert-butyl-L-threoninate]
100 to 1000	CC[C@H](C)[C@H](NCCc1ccc(-n2c(N)c(C(=O)c3ccc(F)cc3F)ccc2=O)cc1)C(=O)OC(C)(C)C [Example 19, tert-butyl N-[2-(4-{6-amino-5-[(2,4-difluorophenyl)carbonyl]-2-oxopyridin-1(2H)-yl}phenyl)ethyl]-L-isoleucinate]
< 100	C[C@H](NCCc1ccc(-n2c(N)c(C(=O)c3ccc(F)cc3F)ccc2=O)cc1)C(=O)OC(C)(C)C [Example 21, tert-butyl N-[2-(4-{6-amino-5-[(2,4-difluorophenyl)carbonyl]-2-oxopyridin-1(2H)-yl}phenyl)ethyl]-L-alaninate]
100 to 1000	CC(C)(C)OC(=O)[C@H](Cc1ccccc1)NCCc1ccc(-n2c(N)c(C(=O)c3ccc(F)cc3F)ccc2=O)cc1 [Example 23, tert-butyl N-[2-(4-{6-amino-5-[(2,4-difluorophenyl)carbonyl]-2-oxopyridin-1(2H)-yl}phenyl)ethyl]-L-phenylalaninate]
100 to 1000	Nc1c(C(=O)c2ccc(F)cc2F)ccc(=O)n1-c1ccc(CCN[C@H](C(=O)O)c2ccccc2)cc1 [Example 51, (2S)-[(2-{4-[6-amino-5-(2,4-difluorobenzoyl)-2-oxopyridin-1(2H)yl]-phenyl}ethyl)amino](phenyl)acetic acid]
< 100	CC(C)[C@H](NCCc1ccc(-n2c(N)c(C(=O)c3ccc(F)cc3F)ccc2=O)cc1)C(=O)O [Example 53, N-[2-(4-{6-amino-5-[(2,4-difluorophenyl)carbonyl]-2-oxopyridin-1(2H)-yl}phenyl)ethyl]-L-valine]
100 to 1000	CC(C)(C)[C@H](NCCc1ccc(-n2c(N)c(C(=O)c3ccc(F)cc3F)ccc2=O)cc1)C(=O)O [Example 54, N-[2-(4-{6-amino-5-[(2,4-difluorophenyl)carbonyl]-2-oxopyridin-1(2H)-yl}phenyl)ethyl]-3-methyl-L-valine]
100 to 1000	CC(C)C[C@@H](NCCc1ccc(-n2c(N)c(C(=O)c3ccc(F)cc3F)ccc2=O)cc1)C(=O)O [Example 55, N-[2-(4-{6-amino-5-[(2,4-difluorophenyl)carbonyl]-2-oxopyridin-1(2H)-yl}phenyl)ethyl]-D-leucine]
< 100	CC(C)(C)OC[C@H](NCCc1ccc(-n2c(N)c(C(=O)c3ccc(F)cc3F)ccc2=O)cc1)C(=O)O [Example 56, N-[2-(4-{6-amino-5-[(2,4-difluorophenyl)carbonyl]-2-oxopyridin-1(2H)-yl}phenyl)ethyl]-O-tert-butyl-L-serine]
< 100	Nc1c(C(=O)c2ccc(F)cc2F)ccc(=O)n1-c1ccc(CCN[C@@H](CO)C(=O)O)cc1 [Example 57, N-[2-(4-{6-amino-5-[(2,4-difluorophenyl)carbonyl]-2-oxopyridin-1(2H)-yl}phenyl)ethyl]-L-serine]
< 100	C[C@H](NCCc1ccc(-n2c(N)c(C(=O)c3ccc(F)cc3F)ccc2=O)cc1)C(=O)O [Example 60, N-[2-(4-{6-amino-5-[(2,4-difluorophenyl)carbonyl]-2-oxopyridin-1(2H)-yl}phenyl)ethyl]-L-alanine]
< 100	Nc1c(C(=O)c2ccc(F)cc2F)ccc(=O)n1-c1ccc(CCN[C@@H](Cc2ccccc2)C(=O)O)cc1 [Example 61, N-[2-(4-{6-amino-5-[(2,4-difluorophenyl)carbonyl]-2-oxopyridin-1(2H)-yl}phenyl)ethyl]-L-phenylalanine]

More lines, now with the values behind:

SMILES	IC50 [nM]
Nc1c(C(=O)c2ccc(F)cc2F)ccc(=O)n1-c1ccc(CCN[C@H](C(=O)OC2CCCC2)C2CCCCC2)cc1 [Example 3, Cyclopentyl (2S)-{[2-(4-{6-amino-5-[(2,4-difluorophenyl)carbonyl]-2-oxopyridin-1(2H)-yl}phenyl)ethyl]amino}(cyclohexyl)ethanoate]	100 to 1000
CC(C)C[C@H](NCCc1ccc(-n2c(N)c(C(=O)c3ccc(F)cc3F)ccc2=O)cc1)C(=O)O[C@H]1C[C@@H](C)CC[C@@H]1C(C)C [Example 14, (1S,2R,5S)-2-Isopropyl-5-methylcyclohexyl N-(2-{4-[6-amino-5-(2,4-difluorobenzoyl)-2-oxopyridin-1(2H)-yl]phenyl}ethyl)-L-leucinate]	> 1000
CC(C)(C)OC[C@H](NCCc1cc(F)c(-n2c(N)c(C(=O)c3ccc(F)cc3)ccc2=O)c(F)c1)C(=O)OC(C)(C)C [Example 32, tert-butyl N-(2-{4-[6-amino-5-(4-fluorobenzoyl)-2-oxopyridin-1(2H)-yl]-3,5-difluorophenyl}ethyl)-O-tert-butyl-L-serinate]	100 to 1000
CC(C)C[C@H](NCCc1ccc(-n2c(N)c(C(=O)c3ccc(F)cc3F)ccc2=O)s1)C(=O)OC(C)(C)C [Example 50, tbutyl N-(2-{5-[6-amino-5-(2,4-difluorobenzoyl)-2-oxopyridin-1(2H)-yl]-2-thienyl}ethyl)-L-leucinate]	100 to 1000
Nc1c(C(=O)c2ccc(F)cc2F)ccc(=O)n1-c1ccc(CCN[C@H](C(=O)O)C2CCCCC2)cc1 [Example 52, (2S)-{[2-(4-{6-amino-5-[(2,4-difluorophenyl)carbonyl]-2-oxopyridin-1(2H)-yl}phenyl)ethyl]amino}(cyclohexyl)ethanoic acid]	100 to 1000
C[C@@H](O)[C@H](NCCc1ccc(-n2c(N)c(C(=O)c3ccc(F)cc3F)ccc2=O)cc1)C(=O)O [Example 58, N-[2-(4-{6-amino-5-[(2,4-difluorophenyl)carbonyl]-2-oxopyridin-1(2H)-yl}phenyl)ethyl]-L-threonine]	< 100
Nc1c(C(=O)c2ccc(F)cc2)ccc(=O)n1-c1c(F)cc(CCN[C@H](C(=O)O)c2ccccc2)cc1F [Example 62, (2S)-[(2-{4-[6-amino-5-(4-fluorobenzoyl)-2-oxopyridin-1(2H)-yl]-3,5-difluorophenyl}ethyl)amino](phenyl)acetic acid]	< 100
CC(C)C[C@H](NCCc1cc(F)c(-n2c(N)c(C(=O)c3ccc(F)cc3)ccc2=O)c(F)c1)C(=O)O [Example 63, N-(2-{4-[6-amino-5-(4-fluorobenzoyl)-2-oxopyridin-1(2H)-yl]-3,5-difluorophenyl}ethyl)-L-leucine]	< 100
CC(C)C[C@@H](NCCc1cc(F)c(-n2c(N)c(C(=O)c3ccc(F)cc3)ccc2=O)c(F)c1)C(=O)O [Example 64, N-(2-{4-[6-amino-5-(4-fluorobenzoyl)-2-oxopyridin-1(2H)-yl]-3,5-difluorophenyl}ethyl)-D-leucine]	< 100
CC(C)(C)OC[C@H](NCCc1cc(F)c(-n2c(N)c(C(=O)c3ccc(F)cc3)ccc2=O)c(F)c1)C(=O)O [Example 65, N-(2-{4-[6-amino-5-(4-fluorobenzoyl)-2-oxopyridin-1(2H)-yl]-3,5-difluorophenyl}ethyl)-O-tert-butyl-L-serine]	< 100
Nc1c(C(=O)c2ccc(F)cc2F)ccc(=O)n1-c1c(F)cc(CCN[C@H](C(=O)O)c2ccccc2)cc1F [Example 66, (2S)-[(2-{4-[6-amino-5-(2,4-difluorobenzoyl)-2-oxopyridin-1(2H)-yl]-3,5-difluorophenyl}ethyl)amino](phenyl)acetic acid]	< 100
CC(C)C[C@H](NCCc1cc(F)c(-n2c(N)c(C(=O)c3ccc(F)cc3F)ccc2=O)c(F)c1)C(=O)O [Example 67, N-(2-{4-[6-amino-5-(2,4-difluorobenzoyl)-2-oxopyridin-1(2H)-yl]-3,5-difluorophenyl}ethyl)-L-leucine]	< 100
CC(C)C[C@@H](NCCc1cc(F)c(-n2c(N)c(C(=O)c3ccc(F)cc3F)ccc2=O)c(F)c1)C(=O)O [Example 68, N-(2-{4-[6-amino-5-(2,4-difluorobenzoyl)-2-oxopyridin-1(2H)-yl]-3,5-difluorophenyl}ethyl)-D-leucine]	< 100
CC(C)(C)OC[C@H](NCCc1cc(F)c(-n2c(N)c(C(=O)c3ccc(F)cc3F)ccc2=O)c(F)c1)C(=O)O [Example 69, N-(2-{4-[6-amino-5-(2,4-difluorobenzoyl)-2-oxopyridin-1(2H)-yl]-3,5-difluorophenyl}ethyl)-O-tert-butyl-L-serine]	< 100
